Laboratory results published in US9775895B2, “HIV therapeutics and methods of making and using same” (priority 2012, dated 2017).
Non-standard residues stand in square brackets, D forms with d. Residues, ends and D or L forms follow the SMILES beside them. No end group written: not given here. sY = N[C@@H](Cc1ccc(OS(=O)(=O)O)cc1)C(=O)O

Assays:
[1] = test system: gp120 tyrosine sulfation (sulfotransferases); experiment: Western blot of tyrosine sulfation in recombinant gp120 produced in CHO cells; type: cell-based; details: 30 mM; recombinant gp120 BaL
HeLa and HEK293 cells = experiment: Viability of cell lines by timed flow cytometry counting; type: cell-based; details: 30 mM, 72 hrs
Procedure: FIGS. 2L-2O illustrate the different efficiency of V2 tyrosine sulfation in recombinant gp120 produced in epithelial cell lines versus virion-associated gp120 produced by primary CD4^+ T cells. (L) Detection of sulfated tyrosines by Western blot in recombinant gp120 produced in CHO cells. (M) Lack of adverse effects of sodium chlorate treatment or TPST2 overexpression on the viability of HeLa and HEK293 cells. The cell lines were treated with 30 mM sodium chlorate (NaClO3) or transfected with a plasmid vector expressing TPST2 and cultured for 72 hrs. Cell viability was measured by quantitative counting using timed flow cytometry on a FACSCanto II and is expressed as percent viable cell recovery. (N) Side-by-side comparison of the extent of tyrosine sulfation detected by Western blot in a reference sulfated mAb (412d), in virion-associated gp120 produced by infected primary human CD4^+ T cells (V-gp120), and in recombinant gp120 produced in HEK293 cells (R-gp120). Identical amounts of mAb 412d and purified gp120 were loaded on the gels. For V-gp120, the protein was immunoprecipitated directly from the infectious viral stocks. The antibodies used for Western blots and the methods used for relative quantification were the same as in (L). […]

HIV-1 BaL ΔV2 gp160 = experiment: Fusion neutralization of HIV-1 BaL ΔV2 with or without NaClO3 pre-treatment; type: cell-based; details: 30 mM, 72 hrs pre-treatment
[2] = molecular target: T1, recombinant soluble gp120 (isolate YU2) (Human immunodeficiency virus type 1 group M subtype B, UniProt P35961); experiment: Surface plasmon resonance, gp120 binding to immobilized biotinylated peptide; design: species or system HIV-1
T1 construct: recombinant soluble gp120 (isolate YU2)
Source text: Binding of gp120 to immobilized peptide pV2α as assessed by surface plasmon resonance analysis (FIG. 3F). The biotinylated peptide was bound to a neutravidin-coated CM3 sensor chip and recombinant soluble gp120 (isolate YU2) was flown over the chip in the liquid phase. […] Residuals of the fit, which has an RMSD of 0.62 RU shown twice on different scales to facilitate their critical inspection (lower two graphs).

recombinant soluble CD4 = molecular target: T2, recombinant soluble CD4 (Homo sapiens, UniProt P01730); experiment: Surface plasmon resonance, soluble CD4 binding to immobilized biotinylated peptide; details: koff-KD distribution model
T2 construct: recombinant soluble CD4 was flown over the chip
Procedure: FIG. 12 is a graph illustrating binding of recombinant soluble CD4 to peptide pV2α. The biotinylated peptide was bound to a neutravidin-coated CM3 sensor chip and recombinant soluble CD4 was flown over the chip in the liquid phase. Experimental binding traces were recorded for sCD4 (at the concentration of […]) binding to 235 RU pV2α at a flow rate of […]; best fit traces (red lines) were derived from modeling with koff−KD distribution. (Lower graphs) Residuals of the fit, which has an rmsd of 0.47 RU shown twice on different scales to facilitate their critical inspection.
Binding of recombinant soluble CD4 to peptide pV2α was evaluated by surface plasmon resonance (FIG. 12). The biotinylated peptide was bound to a neutravidin-coated sensor chip and recombinant soluble CD4 was flown over the chip in the liquid phase. Experimental binding traces were recorded for sCD4 (at the concentration of […]) binding to 235 RU pV2α at a flow rate of […]; best fit traces (red lines) were derived from modeling with koff−KD distribution.

primary CD4+ T cells = experiment: Cell viability of primary CD4+ T cells by timed flow cytometry counting; type: cell-based, human; details: activated primary CD4+ T cells cultured 7 days
Procedure: FIG. 9 is a graph illustrating the effect of V2-derived peptides pV2α and pV2α-Tys on viability of primary CD4^+ T cells. Purified human peripheral blood CD4^+ T cells previously activated in vitro with phytohemagglutinin and IL-2 were treated with each peptide at the indicated concentrations and cultured for 7 days. Cell viability was measured by quantitative counting using timed flow cytometry on a FACSCanto II.
HIV-1 isolates, infection, entry and cell viability assays. Details about the HIV-1 isolates used in the this study, the infection assay, the entry assay and the cell viability assay have been reported previously (Auerbach et al., Proc Natl Acad Sci USA 109, 9569-9574, 2012).

HIV-1 BaL = type: cell-based; details: acute infection, primary human CD4+ T cells; read-out: half maximal inhibitory concentration (IC50) for infection by HIV-1 BaL
Source text: (§1) FIGS. 3A-3H are a series of graphs illustrating that a tyrosine-sulfated peptide containing the V2 α-helix binds to gp120, competes with an anti-CCR5-binding site antibody for HIV-1 virion binding, and blocks HIV-1 entry, infection and fusion. (A) Effect of tyrosine-sulfated V2-loop (pV2α-Tys) and CCR5 N-terminus (pCCR5-Tys) mimetic peptides on HIV-1 virion capture by mAb 412d, a sulfated mAb directed to the CCR5-binding site at the base of V3. Unsulfated homologous peptides (pV2α and pCCR5) were tested in parallel as controls. Infectious viral stocks from HIV-1 BaL were pre-treated with the peptides (each at 50 μM) and then incubated with immunomagnetic beads armed with mAb 412d; beads armed with mAb 2G12 (directed to a glycan-dependent epitope on the gp120 outer domain) were used in parallel as a control. Asterisks denote significant differences with the untreated control (p<0.05 by unpaired Student's t test). (B) Dose-dependent effect of peptides pV2α and pV2α-Tys on cell-free infection by HIV-1 BaL in primary CD4^+ T cells. […] (F) Binding of gp120 to immobilized peptide pV2α as assessed by surface plasmon resonance analysis. […] (H) Comparison between the experimentally determined V3 interaction of the tyrosine sulfated CDRH3 region of mAb 412d and the modeled V3 interaction of a tyrosine sulfated peptide derived from the central region of V2. […]

[3] = test system: HIV-1 BaL virions captured by mAb 412d (CCR5-binding site at the base of V3); experiment: HIV-1 virion-capture assay with mAb 412d-armed immunomagnetic beads; details: peptides at 50 μM; virions pre-treated with sCD4 5 μg/ml
Source text: as §1

[4] = test system: CD4-activated gp120 (BaL) binding to mAb 412d; experiment: Surface plasmon resonance, peptide effect on gp120 binding to immobilized mAb 412d; design: species or system HIV-1; details: peptide at 166 μM; gp120 BaL 100 nM with sCD4
Procedure: (§2) The interaction of the tyrosine-sulfated V2 peptide with the 412d-binding site was further characterized by surface plasmon resonance (SPR).
(§3) Surface plasmon resonance. Recombinant gp120 from HIV-1 BaL (at 100 nM) obtained from the NIH AIDS Reagent Program was pre-incubated with or without a 2-fold molar excess of two-domain sCD4 (at 200 nM) and passed over a Biacore CM5 sensor surface in the presence or absence of the indicated peptides (at 166 μM) for 2 min at 25 μl/min in HBS supplemented with 3 mM EDTA and 0.005% Tween-20 followed by a 2 min dissociation phase using a Biacore 3000 biosensor (Biacore, Inc.). Surfaces were regenerated after each cycle by a brief injection of 4.5M MgCl2.

[5] = test system: gp120 (BaL) binding to mAb F105; experiment: Surface plasmon resonance, peptide effect on gp120 binding to control mAb F105; design: species or system HIV-1; details: peptide at 166 μM; specificity control
Procedure: as §2, §3

Compound: [Na+].[O-][Cl+2]([O-])[O-] [sodium chlorate]
- effect on gp120 tyrosine sulfation [1]: totally abrogated gp120 sulfation
- effect on cell viability (HeLa and HEK293 cells): no negative effects
- effect on cell viability (HeLa and HEK293 cells; listed as NaClO3): no adverse effects
- effect on neutralization sensitivity of HIV-1 BaL ΔV2 (HIV-1 BaL ΔV2 gp160): nor did it alter

Compound: CC[C@H](C)[C@H](NC(=O)[C@H](CC(=O)O)NC(=O)[C@H](CC(C)C)NC(=O)[C@H](CCC(=O)O)NC(=O)[C@H](Cc1ccc(O)cc1)NC(=O)[C@H](Cc1ccccc1)NC(=O)[C@H](CC(C)C)NC(=O)[C@H](C)NC(=O)[C@H](Cc1ccc(O)cc1)NC(=O)[C@H](CCC(=O)O)NC(=O)[C@H](CCCCN)NC(=O)[C@H](CCC(N)=O)NC(=O)[C@@H](NC(=O)[C@@H](N)CCCCN)C(C)C)C(=O)N[C@H](C(=O)N1CCC[C@H]1C(=O)N[C@H](C(=O)N[C@@H](CC(=O)O)C(=O)O)[C@@H](C)CC)C(C)C [pV2α] (H-KVQKEYALFYELDIVPID-OH)
- Kd [2]: 0.0009 µM
- koff ([2]; read-out: koff of gp120 binding to immobilized peptide): 6.4e-05 s⁻¹
- koff (recombinant soluble CD4): 0.013 s⁻¹
- effect on cell viability (primary CD4+ T cells): no negative effects

Compound: CC[C@H](C)[C@H](NC(=O)[C@H](CC(=O)O)NC(=O)[C@H](CC(C)C)NC(=O)[C@H](CCC(=O)O)NC(=O)[C@H](Cc1ccc(OS(=O)(=O)O)cc1)NC(=O)[C@H](Cc1ccccc1)NC(=O)[C@H](CC(C)C)NC(=O)[C@H](C)NC(=O)[C@H](Cc1ccc(OS(=O)(=O)O)cc1)NC(=O)[C@H](CCC(=O)O)NC(=O)[C@H](CCCCN)NC(=O)[C@H](CCC(N)=O)NC(=O)[C@@H](NC(=O)[C@@H](N)CCCCN)C(C)C)C(=O)N[C@H](C(=O)N1CCC[C@H]1C(=O)N[C@H](C(=O)N[C@@H](CC(=O)O)C(=O)O)[C@@H](C)CC)C(C)C [pV2α-Tys] (H-KVQKE[sY]ALF[sY]ELDIVPID-OH)
- IC50 (HIV-1 BaL): 15 µM
- effect on cell viability (primary CD4+ T cells): no negative effects

Compound: pCCR5-Tys: tyrosine-sulfated peptide derived from the CCR5 N-terminus (DYQVSSPIYDINYYTSE; also: tyrosine-sulfated, sites not given here)
- inhibition of virion capture by mAb 412d [3]: specifically inhibited
- inhibition of binding of surface-bound mAb 412d to CD4-activated gp120 [4]: blocked
- inhibition of gp120 binding to mAb F105 [5]: lack of inhibition
